From PMC5606850, “Acidic C-terminal domains autoregulate the RNA chaperone Hfq” (eLife, 2017)
“Also recorded” adds a separate entry of the source.

Tested on: linear pUC19 DNA
Assay: Hfq binding to linear pUC19 DNA, agarose gel mobility shift
Conditions: 0–3.3 μM Hfq hexamer, 6 nM linear pUC19, 25 °C, 1.5% agarose
Protocol: Figure 5. CTD and RNAs inhibit DNA binding to Hfq by obstructing the basic rim patch. (A, B) Agarose gel electrophoretic mobility shift assays of 0–3.3 μM hexamer Hfq102, Hfq102-R16A, Hfq65 or Hfq65-R16A binding to 6 nM linear pUC19 DNA (2635 nts) at 25°C, stained with SYBR Gold. Hfq65 forms large aggregates that fail to enter the gel (Figure 5—figure supplement 1). (C, D) Line densitometry of DNA migration in (A, B). Free pUC19 (no Hfq) is shown in light grey. Samples with increasing Hfq concentration are shown in darker shades of grey. (E, F) RNA competition. Complexes of 0.5 μM Hfq102 hexamer and 6 nM linear pUC19 (black) were challenged by 0–2 μM RNA or DNA competitor (darker shades of red). pUC19 control in the absence of Hfq is shown in light grey. Icons indicate the binding surface for each competitor. See Figure 5—figure supplement 2 for gel images. Figure 5—figure supplement 1. Hfq CTD prevents aggregation with DNA. (A) Protease assay. 3.5 µM Hfq hexamer incubated with 6 nM linear (L) plus relaxed circular (N) pUC19 DNA at 25°C, for 30 min, in 50 mM Tris-HCl pH 7.5 and 10 mM CaCl2. The samples were divided in two. One set was diluted with a small amount of buffer and incubated at 25°C for an additional 2 hr. The second set was brought to 0.5% SDS, and 0.4 U Proteinase K (NEB) was added, followed by incubation at 50°C for an additional 2 hr. Loading dye was added to all samples just before they were loaded onto a native gel. […] Digestion of Hfq65 and Hfq65-R16A with Proteinase K liberates DNA from Hfq•DNA aggregates, allowing it to be detected (lanes 9 and 10). (B) Pelleting assay. 3.5 µM Hfq hexamer was incubated with 15 nM 1000 bp DNA (Thermo Scientific) at 25°C for 30 min in 50 mM Tris-HCl pH 7.5. Hfq·DNA aggregates were pelleted by centrifugation at 20,000 × g, 4°C, for 30 min. Supernatants were removed and split in two. The pellet and half the supernatant were brought to 1 M NaCl, and the Hfq·DNA aggregates were further disrupted by phenol-chloroform extraction, before all of the samples were loaded on an agarose gel. […] The small proportion of Hfq65·DNA complexes remaining in the supernatant were only detected in the gel after treatment with salt. […] Competition of Hfq-DNA interactions by small RNAs. EMSAs of 0.5 μM Hfq102 hexamer binding to 6 nM linearized pUC19 plasmid, that were competed with 0.1–2 μM RNAs or DNA at 30°C. Gels were run in a cold room. […]
Samples (10 µL) containing linear pUC19 (0.145 nmol bp), 0–3.333 µM Hfq hexamer, in 40 mM Tris-HCl pH 7.5, 0.14 mM EDTA, 35 mM NH4Cl, 3.7% (v/v) glycerol, 0.05% (w/v) bromophenol blue were incubated at 25°C for 30 min. […] The fluorescence intensity was measured on a line from the bottom edge of the well through the middle of the lane to visualize the migration of pUC19. […]

Hfq65-R16A was tested, and the “binding to linear pUC19 DNA (gel mobility)” value (“binding to linear pUC19 DNA” below) was “rescued the formation of insoluble aggregates; also recorded: complexes migrated more slowly than those formed by similar concentrations of Hfq102” and the “binding to linear pUC19 DNA” value (listed as R16A) was “lowered the maximum gel retardation and increased the intensity of the ‘smear’”.
In the case of “Hfq65: truncated E. coli Hfq variant lacking the CTD”, the “binding to linear pUC19 DNA” value is reported as “At higher protein concentrations, the DNA formed aggregates that were too large to enter the gel”.
For Hfq102: full-length E. coli Hfq, the “binding to linear pUC19 DNA” value was “The mobility of the DNA-Hfq complexes decreased with added Hfq102”.
